The record followed here is US20220000969A1, “COMBINATIONS OF LYSOBACTIN AND AMINOGLYCOSIDES AGAINST DISEASES CAUSED BY GRAM-POSITIVE AND GRAM-NEGATIVE BACTERIA IN NON-HUMAN ANIMALS” (Bayer Animal Health GmbH, priority 2017, published 2022).

Starred links: 1 amine or outer side, 2 acyl side, 3 side chain; linkers in the order of their positions; H or OH if unused. Positions of bridges follow the written chain, without caps; N, C: chain ends. Non-standard residues stand in square brackets, D forms with d. Residues, ends and D or L forms follow the SMILES beside them. Phe(3R-OH) = O=C([C@@H](N[*:1])[C@H](O[*:3])c1ccccc1)[*:2]; Asn(3S-OH) = NC(=O)[C@@H](O)[C@H](N)C(=O)O; Leu(3R-OH) = CC(C)[C@@H](O)[C@H](N)C(=O)O; aThr = C[C@H](O)[C@H](N)C(=O)O

Assay [1] has as its system Staphylococcus aureus ATCC 29740. Kind of assay: in vitro kill kinetics of lysobactin alone in milk. Format: cell-based. The settings on record: lysobactin 4-64 μg/mL, at 24 h. As for the experimental part: (§1) In order to assess the ability of lysobactin to kill bacteria in milk, flasks containing different concentrations of lysobactin in store-bought full-fat milk were inoculated with 1-2×10^6 colony forming units/ml of a representative strain of either Staphyloccus aureus or Streptococcus uberis. The flasks were incubated for 24-48 hours in a shaking water bath at 35+/−2° C., and viable bacterial counts in each flask were determined at several time-points by diluting and plating samples on agar plates. A reduction of the number of viable bacteria in the initial inoculum by at least 99.9% is defined as bactericidal activity.
(§2) The kill kinetics of lysobactin against Staphylococcus aureus ATCC 29740 and Streptococcus uberis ATCC 27958 in milk were determined for concentrations of lysobactin of 4, 8, 16, 32 and 64 μg/mL. Results are depicted in FIG. 1 (CFU: colony forming units). A cidality at 24 h and 48 h, respectively, can be postulated for S. aureus and S. uberis.

Assay [2] deals with Streptococcus uberis ATCC 27958. Kind of assay: in vitro kill kinetics of lysobactin alone in milk. It is filed as cell-based. The note with it: lysobactin 4-64 μg/mL, at 48 h. As for the experimental part: as §1, §2
Assay [3] concerns S. aureus. Put plainly: resistance development during serial passaging. Format: cell-based, Staphylococcus aureus. The settings on record: serial passaging at sub-MIC concentrations over 33 days. As for the experimental part: (§3) The appearance of MIC changes during constant exposure of bacteria to sub-MIC concentrations of lysobactin was assessed by serial passaging experiments. On the first day the MICs of S. aureus and S. uberis were assessed by microbroth dilution MIC methodology as described by the Clinical and Laboratory Standards Institute (CLSI). Each day for the following 33 consecutive days, bacteria from the well containing the highest concentrations allowing full growth were collected and used to inoculate new 96-well plates and to assess the MIC during constant exposure to lysobactin. The MIC obtained on each day was plotted over time. Rifampicin, which is known to result in quick changes of the MIC, was used as positive control.

Assay [4] has as its system S. uberis. Put plainly: resistance development during serial passaging. The note with it: serial passaging at sub-MIC concentrations over 33 days. Format: cell-based, Streptococcus uberis. As for the experimental part:
as §3

Assay [5] has as its system Staphylococcus aureus. Put plainly: Staphylococcus aureus acute mouse mastitis model. It is filed as in vivo, lactating CD-1 mice. As for the experimental part:
The efficacy of lysobactin (formulated in a hydrogel at pH 4.7) was tested in a Staphylococcus aureus acute mouse mastitis model established at the University of Sherbrooke, Canada (Brouillette et al, Vet. Microbiol. (2004) 4:253-262), that is hereby incorporated by reference. Both the abdominal mammary glands (L4 and R4) of lactating CD-1 mice were intramammarily infected with 100 CFU (colony forming units) of S. aureus. The mice were treated intramammarily with lysobactin four hours after infection. Each treatment group contained at least 3 mice (6 quarters), 14 hours later (18 hours after inoculation) mice were sacrificed, mammary glands were harvested and the CFU content evaluated by plating 10-fold serial dilutions of mammary gland homogenates. The CFU content was expressed as log10 count. The detection limit was 200 CFU/g of gland. Glands with less than 200 CFU/g were regarded as cleared. The efficacy of lysobactin and neomycin trisulfate, either alone or in combination, was tested in a Staphylococcus aureus acute mouse mastitis model established at the University of Sherbrooke, Canada (Brouillette et al, Vet. Microbiol. (2004) 4:253-262), as described in example 5. Samples were formulated in paraffin.

The test system of assay [6] is Streptococcus uberis (ATCC 27958). Kind of assay: acute mouse mastitis model with S. uberis (example 14). Format: in vivo, lactating CD-1 mice. The settings on record: paraffin formulation, 18 h after infection. Here is the method: Twenty-three lactating CD-1 mice were experimentally infected 10-15 days after birth of the offspring with the mastitis pathogen Streptococcus uberis (ATCC 27958) on the left and right fourth mammary gland. Four hours after infection the animals were treated intrammarily with the test items. The study comprised four treatment groups with four mice each and a control group with seven mice. The mice of the treatment groups received paraffin formulations of lysobactin at 15 μg/gland or neomycin trisulfate at 1600 μg/gland, or two combinations of both with lysobactin at 15 μg plus neomycin trisulfate at 800 μg or 1600 μg per gland. Eighteen hours after infection the mice were killed and the mammary glands were removed and bacterial CFU were evaluated microbiologically.

Assay [7] deals with Staphylococcus aureus. Kind of assay: dairy cow udder infection model with S. aureus (example 15). Format: in vivo, lactating dairy cows. The settings on record: for microbiological cure rate: miglyol based suspension, two times; for SCC recovery rate: counts below 200.000 cells per mL. The text has this:
Fifteen healthy lactating dairy cows were experimentally infected with the mastitis pathogen Staphylococcus aureus on all four udder quarters.
Additionally a fourth group of udder quarters received miglyol as negative control. Treatments were randomly assigned to 60 udder quarters in total. Only udder quarters that were bacteriologically positive for the challenge organism immediately prior to treatment (n=49) were eligible for assessment of microbiological and clinical cure. The diseased quarters were treated with these intramammary formulations two times with an interval of 24 hours in between. Udders were clinically examined and milk samples were taken before treatment and several times after that until three weeks after the second administration by study personnel blinded to treatment.
Milk was inspected visually for deviation in its consistency and samples were evaluated for presence of the challenge organism and for somatic cell count to confirm the diagnosis mastitis. Diseased udder quarters were considered microbiologically cured when Staphylococcus aureus found in milk samples shortly before treatment could not be isolated from any milk sample taken within the time period between the third and the twenty-first day after the second treatment. Clinical cure was achieved when the local symptoms of mastitis had completely disappeared, and recovery of somatic cell counts (SCC) as parameter of udder inflammation was attained when all counts remained below 200.000 cells per mL of milk in the period mentioned above.

In assay [8] the test system is E. coli P4:032. Put plainly: in vitro kill kinetics of combinations in milk (synergy). The note with it: after 8 h, 32 μg/ml neomycin alone. It is filed as cell-based. Here is the method: The flasks were incubated for 24-48 hours in a shaking water bath at 35+/−2° C., and viable bacterial counts in each flask were determined at several time-points by diluting and plating samples on agar plates.
The kill kinetics of lysobactin and neomycin, either alone or in combination, against E. coli P4:032 in milk were determined for concentration ratio of lysobactin:neomycin of […] (256 μg/ml lysobactin and 32 μg/ml neomycin).

Setting [9] is: Day 3 after second treatment, lysobactin 50 mg.
[10] abbreviates: Day 21 after second treatment, lysobactin 50 mg.
Where [11] appears, read: Day 3 after second treatment, neomycin trisulfate 400 mg.
Setting [12] is: Day 21 after second treatment, neomycin trisulfate 400 mg.

Consider `CC[C@H](C)[C@@H]1NC(=O)[C@@H](CCCNC(=N)N)NC(=O)[C@H](CC(C)C)NC(=O)[C@H]([C@H](O)C(C)C)NC(=O)[C@@H](NC(=O)[C@H](CC(C)C)NC(=O)[C@H](N)CC(C)C)[C@@H](c2ccccc2)OC(=O)[C@H](CO)NC(=O)[C@H]([C@H](O)C(N)=O)NC(=O)CNC(=O)[C@H]([C@H](C)O)NC1=O` [lysobactin] (H-[dL]L[Phe(3R-OH)][Leu(3R-OH)]L[dR]I[aThr]G[Asn(3S-OH)]S; ester 3-C), for which the “cidality (reduction of viable bacteria by at least 99.9%)” value in assay [1] and in assay [2] was “cidality” throughout. Moreover, the “MIC change during constant exposure” value in assay [3] and in assay [4] was “remain constant” each time. Further, the “reduction of median CFU content” value is given as “ca. 2.7 log10” in assay [5] (50 μg lysobactin intramammary, formulated in paraffin) and “ca. 4 log10” in assay [5] (50 μg lysobactin intramammary, hydrogel pH 4.7, 4 h after infection, glands 18 h after inoculation). In assay [5] (400 μg lysobactin intramammary, hydrogel pH 4.7, cleared = less than 200 CFU/g), the “elimination of infection from glands” value is on record as “eliminates the infection from all infected glands”. Besides, in assay [6] (15 μg lysobactin per gland), the “reduction of mean CFU content” value is listed as “ca. 2.6 log10”. In addition, the “local clinical cure rate” value in assay [7] (setting [9]) and in assay [7] (setting [10]) was 71% throughout. Also, the microbiological cure rate is given as 71% in assay [7] (setting [9]) and 14% in assay [7] (setting [10]). For the same compound, the SCC recovery rate in assay [7] (setting [9]) was found to be 35%; in assay [7] (setting [10]) it was 36%.
As to `NC[C@@H]1O[C@H](O[C@@H]2[C@@H](CO)OC(O[C@@H]3[C@@H](O)[C@H](N)C[C@H](N)[C@H]3OC3O[C@H](CN)[C@@H](O)[C@H](O)[C@H]3N)[C@@H]2O)[C@H](N)[C@@H](O)[C@@H]1O` (some centres unmarked) [neomycin trisulfate, reference compound], the “reduction of median CFU content” value in assay [5] (1600 μg neomycin trisulfate intramammary, formulated in paraffin) is recorded as roughly 2.5 log10. Besides, the “reduction of mean CFU content” value in assay [6] (1600 μg neomycin trisulfate per gland) was roughly 1.5 log10. Moreover, in assay [7] (setting [11]), the “local clinical cure rate” value amounted to 67%, the microbiological cure rate turned out to be 100% and the SCC recovery rate is given as 17%. Moreover, in assay [7] (setting [12]), the “local clinical cure rate” value came to 100%, the microbiological cure rate was determined as 42% and the SCC recovery rate was determined as 50%.
As to neomycin, in assay [8], the bacterial cell count entry is “below the detection limit”.
